{
  "source": "patent US20240174992A1",
  "about": "“SPLIT MODIFIED DEHALOGENASE VARIANTS” (Promega Corporation, priority 2022, published 2024)",
  "key": {"[1]": {"system": "HeLa cells", "assay": "Live cell labeling kinetics of split HaloTag fragments fused to BRD4 and Histone H3, time-lapse imaging", "type": "cell-based", "conditions": "100 nM JF646, BRD4-HaloTag[3-19] and H3.3-HaloTag[22-297](M2F)-EGFP", "protocol": "FIG. 136. Timepoint imaging of complemented BRD4:Histone H3 complexes in live cells after addition of JF646 HaloTag ligand. […] Cells were immediately imaged after the ligand, 100 nM JF646, addition every 15 minutes for 1.5 hour. Imaging data were collected in the Far-red channel (Ex. 637 nm, top panel) and the green channel (Ex. 488 nm, bottom panel).\nFIG. 137. Quantitation of live cell labeling kinetics of split HaloTag fragments fused to BRD4 and Histone H3 using time-lapse imaging. Cells were immediately imaged after the ligand addition every 10 minutes for 70 minutes. A Z-stack image was obtained at all time points to ensure all cells were captured in focus. The most focused Z levels were merged into one, and the intensity of all cells (6 total objects) was measured and averaged at all time points. The average of all cells' intensities present in the captured field of view were tracked in the far-red channel and the green channel over this period. […]\nTo measure the labeling rate, cells were immediately imaged after ligand addition every 10 minutes for 70 minutes (FIG. 137). […] The most focused Z levels were merged into one, and the intensity of all cells (6 total objects) was measured and averaged at all time points. […]"}, "[2]": {"target": "T1, Calmodulin:M13 interaction (Homo sapiens, UniProt P0DP23)", "T1 construct": "HaloTag[3-19]; expressed in transfected cells; host or cells: HeLa cells", "assay": "Calmodulin:M13 interaction with split HaloTag, plate assay in live HeLa cells", "type": "cell-based", "protocol": "FIG. 140. Use of split HaloTag in detecting the interaction between Calmodulin and M13 peptide induced by the Calcium ions in live mammalian cells. […] The fluorescence activity was measured at indicated time points. For each construct, four technical replicates were tested. The bar for each construct is the mean of the four replicates, and the error bar represents the standard deviations.\nFIG. 141. The fold response of split HaloTag in detecting the interaction between Calmodulin and M13 peptide induced by the Calcium ions in live mammalian cells. The fold response of each assay condition was calculated as the ratio of fluorescence signal for +Calcium chloride divided by −Calcium chloride treated cells (B). For each construct, four technical replicates have been tested. The bar for each construct is the mean of the four replicates, and the error bar represents the standard deviations."}, "[3]": {"target": "T1, Calmodulin:M13 interaction", "assay": "Calmodulin:M13 interaction with split HaloTag, live cell imaging in HeLa cells", "type": "cell-based", "protocol": "FIG. 142. Live cell imaging of split HaloTag function in detecting the interaction between Calmodulin protein with the M13 peptide induced upon the addition of Ca ions in live mammalian cells. […] Prior to imaging by confocal microscopy, cells were labeled with 100 nM JF646 HaloTag ligand for 30 minutes at 37° C. The imaging data were collected in the far-red channel (Ex. 637 nm) and the green channel (Ex. 488 nm).\nFIG. 143. Background measurement of HaloTag[22-297](M2F) fused to M13 peptide in live mammalian cells at lower laser intensity To measure the background originating from labeling the HaloTag [22-297](M2F) fragment, cells were transfected with just the M13-HaloTag[22-297](M2F)-EGFP plasmid and imaged using the same microscope settings. The Imaging data were collected in the far-red channel (Ex. 637 nm) and the green channel (Ex. 488 nm).\nFIG. 144. Quantitation of live cell imaging of split HaloTag function in detecting the Calmodulin and M13 peptide interaction in live mammalian cells. Comparison of the fluorescent intensity of all imaged cells across several fields of view in the presence or absence of Calcium chloride (6 mM) conditions compared against the background fluorescent intensity of the labeled non-complemented HaloTag[22-297](M2F) fragment alone. Each dot represents the intensity of an imaged cell. CellProfiler software is used for this analysis."}, "[4]": {"system": "HeLa cells", "assay": "Split HaloTag FRB/FKBP plate-based fluorescent assay in live HeLa cells", "type": "cell-based", "conditions": "for performance of small HaloTag fragment: live HeLa cells, 500 nM Rapamycin, 50 nM JF646", "protocol": "FIG. 27A-B. Activity of split HaloTag combinations in live mammalian cells. HeLa cells transiently transfected with plasmids expressing the large HaloTag fragments fused to FRB and small HaloTag fragments fused to FKBP were incubated for 2 hours with 500 nM Rapamycin, followed by labeling with 50 nM JF646 HaloTag ligand prior to detection of fluorescence at indicated timepoints. FIG. 27A Fluorescence intensity of JF646 HaloTag ligand in live cell assays over time comparing cells treated or untreated with Rapamycin. FIG. 27B Fold response of each assay condition was calculated as the ratio of fluorescence signal for +Rapamycin/−Rapamycin treated cells.\n(§1) FIG. 90. The activity of different small HaloTag fragments in live mammalian cells. HeLa cells transiently transfected with plasmids expressing the large HaloTag fragment fused to FRB and small HaloTag fragments fused to FKBP were incubated for 2 hours with 500 nM Rapamycin, followed by labeling with 50 nM JF646 HaloTag ligand prior to detection of fluorescence activity at indicated time points. Fluorescence intensity of JF646 HaloTag ligand in live cell assays over time comparing cells treated or untreated with Rapamycin.\n(§2) FIG. 91. Fold response of different small HaloTag fragments in live mammalian cells. HeLa cells transiently transfected with plasmids expressing the large HaloTag fragment fused to FRB and small HaloTag fragments fused to FKBP were incubated for 2 hours with 500 nM Rapamycin, followed by labeling with 50 nM JF646 HaloTag ligand prior to detection of fluorescence activity at indicated time points. The fold response of each assay condition was calculated as the ratio of fluorescence signal for +Rapamycin/−Rapamycin treated cells.\nas §1, with “93. Activity comparison” for “90. The activity”, “HaloTag[22-297] variants in a protein complementation assay” for “different small HaloTag fragments”\nas §2, with “94. […]” for “91. Fold response of different small HaloTag fragments in live mammalian cells.”, “+Rapamycin/− Rapamycin” for “+Rapamycin/−Rapamycin”, “cells. […]” for “cells.”"}, "[5]": {"assay": "Complementation of N-terminal split HaloTag constructs in E. coli lysates, Janelia Fluor ligand fluorescence", "type": "biochemical", "conditions": "FKBP fusion against HT(23-297)-FRB, 500 nM Rapamycin, JF646", "protocol": "FIG. 21A-B. Comparison of complementation activity of N-terminal split HaloTag constructs. Each HaloTag fragment was expressed separately in E. coli and then combined after lysis. The smaller N-terminal HaloTag fragments as FKBP fusions were tested against the larger fragments of FIG. 21A HT(23-297)-FRB or FIG. 21B HT(22-297)-FRB. To each reaction, 500 nM Rapamycin was added and incubated at room temperature for 2.5 hours prior to addition of 50 nM JF646 ligand and measurement of fluorescence at the indicated timepoint.\nFIG. 22. Comparison of truncations of N-terminal split HaloTag constructs. Each HaloTag fragment was expressed separately in E. coli and then combined after lysis. […] To each reaction, 500 nM Rapamycin was added and incubated at room temperature for 2 hours prior to addition of 50 nM JF646 ligand and measurement of fluorescence at the indicated timepoint.\nFIG. 25A-B. Mutations in N-terminal split HaloTag fragments improve fluorescence intensity and fold response. […] To each reaction, 500 nM Rapamycin was added and incubated at room temperature for 2 hours prior to addition of 50 nM JF646 ligand and measurement of fluorescence at the indicated timepoint. FIG. 25A Fluorescence intensity is shown for +Rapamycin condition to show the overall system brightness relative to FIG. 25B Fold response following Rapamycin addition. […]"}},
  "data": [
    {"molecule": "C[Si]1(C)c2cc(N3CCC3)ccc2C2(OC(=O)c3ccc(C(=O)NCCOCCOCCCCCCCl)cc32)c2ccc(N3CCC3)cc21", "note": "[JF646]", "values": [
      {"measurement": "time for far-red channel signal to reach its maximum", "setting": "[1]", "value": "about 40 minutes"}
    ]},
    {"molecule": "[Ca+2].[Cl-].[Cl-]", "note": "[calcium, Calcium chloride]", "values": [
      {"measurement": "change in fluorescence of split HaloTag fused to Calmodulin and M13 peptide", "setting": "[2]", "value": "modest, calcium-dependent increase in fluorescence"},
      {"measurement": "change in fluorescence from split HaloTag complementation", "setting": "[3]; 6 mM Calcium chloride, microscopy", "value": "significant increase in fluorescence"},
      {"measurement": "increase in median fluorescence", "setting": "[3]; across all cell images, Calcium chloride 6 mM", "value": 7, "unit": "×"}
    ]},
    {"molecule": "HT(4-19): small HaloTag fragment, residues 4-19, FKBP fusion", "values": [
      {"measurement": "performance of small HaloTag fragment", "setting": "[4]", "value": "good fluorescence intensities and high fold responses"}
    ]},
    {"molecule": "HT(8-19): truncated small N-terminal HaloTag fragment, residues 8-19, FKBP fusion", "values": [
      {"measurement": "complementation activity of truncated small fragment", "setting": "[5]", "value": "Complementation activity was demonstrated"}
    ]},
    {"molecule": "HaloTag[1-30]: small HaloTag fragment, residues 1-30, FKBP fusion", "values": [
      {"measurement": "performance of small HaloTag fragment", "setting": "[4]", "value": "best SmHT in this assay"},
      {"measurement": "background complementation", "setting": "[4]; no Rapamycin", "value": "higher background (no Rapamycin) complementation"}
    ]},
    {"molecule": "HaloTag[3-19]: small HaloTag fragment, residues 3-19 of the HALOTAG sequence; used as fusion or synthetic peptide (EIGTGFPFDPHYVEVLG)", "values": [
      {"measurement": "performance of small HaloTag fragment", "setting": "[4]", "value": "good fluorescence intensities and high fold responses"}
    ]}
  ]
}
